Assay results from KR20230059409A, “Egf 유래 신규 펩타이드 및 이의 용도” (고려대학교 산학협력단, priority 2021, dated 2023).
No end group written: not given here.

Experiments:
인간유래 중간엽줄기세포(hMSC) = assay: 3D spheroid stem cell migration test (branch sprouting in collagen matrix); assay type: cell-based, human; settings: peptide in DMEM 10uM / 100uM, 37℃, 16 h; for extent of stem cell branches extending from 3D spheroid (Fig. 2): compared with EGF group or DMEM only
hMSC = assay: 2D traction force microscope stem cell migration test; assay type: cell-based, human; settings: 24 h imaging; for effect on stem cell mobility (conclusion of the test): hMSC

Substance | length of stem cell branches extending from 3D spheroid, quantified (Fig. 3) (인간유래 중간엽줄기세포(hMSC)) | extent of stem cell branches extending from 3D spheroid (Fig. 2) (인간유래 중간엽줄기세포(hMSC)) | stem cell migration speed (Fig. 7 and 8) (hMSC; hMSC on collagen-coated PA gel with fluorescent beads, compared among EGF, EGP 2, JEP 4 media) | effect on stem cell mobility (conclusion of the test) (hMSC)
NTKVGYIGEREQYRDLK-NH2 [EGP2] | 줄기세포 가지가 상대적으로 긴 것으로 나타났다 | 줄기세포 가지가 가장 많이 뻗어나간 것을 확인 | 속도가 가장 빠른 것으로 나타났다 | 줄기세포의 이동성을 증진시키는 효과가 있음
YCLHDGVSMYIEALDKYACN [JEP4] | 줄기세포 가지가 상대적으로 긴 것으로 나타났다 | 줄기세포 가지가 가장 많이 뻗어나간 것을 확인 | – | 줄기세포의 이동성을 증진시키는 효과가 있음
